Measurements published in article PMC5218480 (PLoS ONE, 2017).

Test system: MV-4-11 cells
Assay: Gene expression microarray analysis (Affymetrix PrimeView) and GSEA
Assay type: cell-based, human
Parameters: RFU PODN (11730768_x_at) / Fold change /veh PODN (11730768_x_at) / RFU LINC00158 (11744669_a_at) / Fold change /veh LINC00158 (11744669_a_at) / RFU DUSP10 (11751237_a_at) / Fold change /veh DUSP10 (11751237_a_at) / RFU ID3 (11757404_x_at) / Fold change /veh ID3 (11757404_x_at) / RFU PLEKHG5 (11737974_s_at) / Fold change /veh PLEKHG5 (11737974_s_at) / RFU LRRC4B (11730491_at) / Fold change /veh LRRC4B (11730491_at) / RFU GIMAP4 (11747438_a_at) / Fold change /veh GIMAP4 (11747438_a_at) / RFU KRT8 (11758183_x_at) / Fold change /veh KRT8 (11758183_x_at) / RFU CNN1 (11734310_a_at) / Fold change /veh CNN1 (11734310_a_at) / RFU VPS37D (11726825_at) / Fold change /veh VPS37D (11726825_at) / RFU C10orf10 (11716522_x_at) / Fold change /veh C10orf10 (11716522_x_at) / RFU KIR2DL2 /// KIR2DL4 /// KIR2DL5A /// KIR2DL5B /// KIR2DS1 /// KIR2DS2 /// KIR2DS3 /// KIR2DS4 /// KIR3DL3 /// KIR3DL3 /// KIR3DS1 (11738374_at) / Fold change /veh KIR2DL2 /// KIR2DL4 /// KIR2DL5A /// KIR2DL5B /// KIR2DS1 /// KIR2DS2 /// KIR2DS3 /// KIR2DS4 /// KIR3DL3 /// KIR3DL3 /// KIR3DS1 (11738374_at) / RFU C1QL1 (11718748_at) / Fold change /veh C1QL1 (11718748_at) / RFU TMPRSS4 (11747572_a_at) / Fold change /veh TMPRSS4 (11747572_a_at) / RFU HAMP (11756126_x_at) / Fold change /veh HAMP (11756126_x_at) / RFU RNFT2 (11725882_a_at) / Fold change /veh RNFT2 (11725882_a_at) / RFU NR4A2 (11747474_a_at) / Fold change /veh NR4A2 (11747474_a_at) / RFU ABCC12 (11746883_a_at) / Fold change /veh ABCC12 (11746883_a_at) / RFU TMEM136 (11760407_x_at) / Fold change /veh TMEM136 (11760407_x_at) / RFU CLDN22 /// WWC2 (11732394_at) / Fold change /veh CLDN22 /// WWC2 (11732394_at) / RFU HLA-DPB1 (11760878_x_at) / Fold change /veh HLA-DPB1 (11760878_x_at) / RFU SPINT1 (11716480_a_at) / Fold change /veh SPINT1 (11716480_a_at) / RFU GAP43 (11754022_s_at) / Fold change /veh GAP43 (11754022_s_at) / RFU A4GNT (11735810_at) / Fold change /veh A4GNT (11735810_at) / RFU PRB3 (11715151_x_at) / Fold change /veh PRB3 (11715151_x_at) / RFU TUBB4B (11761932_at) / Fold change /veh TUBB4B (11761932_at) / RFU CAPN14 (11732068_a_at) / Fold change /veh CAPN14 (11732068_a_at) / RFU TMCC2 (11721928_a_at) / Fold change /veh TMCC2 (11721928_a_at) / RFU IRGQ (11745062_a_at) / Fold change /veh IRGQ (11745062_a_at) / RFU FAM174B (11720279_a_at) / Fold change /veh FAM174B (11720279_a_at) / RFU TMPRSS4 (11748680_a_at) / Fold change /veh TMPRSS4 (11748680_a_at) / RFU FAM212B (11763350_a_at) / Fold change /veh FAM212B (11763350_a_at) / RFU PLEKHG5 (11743358_a_at) / Fold change /veh PLEKHG5 (11743358_a_at) / RFU ZSCAN30 (11745921_a_at) / Fold change /veh ZSCAN30 (11745921_a_at) / RFU CMKLR1 (11741424_a_at) / Fold change /veh CMKLR1 (11741424_a_at) / RFU LOC101060620 /// MAPK8IP1 (11723275_at) / Fold change /veh LOC101060620 /// MAPK8IP1 (11723275_at) / RFU SPTSSB (11747773_x_at) / Fold change /veh SPTSSB (11747773_x_at) / RFU PRSS12 (11739890_at) / Fold change /veh PRSS12 (11739890_at) / RFU BIN1 (11741810_x_at) / Fold change /veh BIN1 (11741810_x_at) / RFU WNT11 (11732464_a_at) / Fold change /veh WNT11 (11732464_a_at) / RFU C10orf10 (11716521_a_at) / Fold change /veh C10orf10 (11716521_a_at) / RFU C5orf56 (11738089_at) / Fold change /veh C5orf56 (11738089_at) / RFU CYB561 (11721691_x_at) / Fold change /veh CYB561 (11721691_x_at) / RFU ANKRD19P (11752326_a_at) / Fold change /veh ANKRD19P (11752326_a_at) / RFU OR2T12 /// OR2T33 /// OR2T8 (11738714_s_at) / Fold change /veh OR2T12 /// OR2T33 /// OR2T8 (11738714_s_at) / RFU VCAN (11748164_a_at) / Fold change /veh VCAN (11748164_a_at) / RFU JSRP1 (11732532_at) / Fold change /veh JSRP1 (11732532_at) / RFU KRTAP10-11 (11738290_x_at) / Fold change /veh KRTAP10-11 (11738290_x_at) / RFU MYO3A (11730013_a_at) / Fold change /veh MYO3A (11730013_a_at) / RFU EBF3 (11725865_a_at) / Fold change /veh EBF3 (11725865_a_at) / RFU CAMK2N1 (11719241_x_at) / Fold change /veh CAMK2N1 (11719241_x_at) / RFU C5orf56 (11738088_a_at) / Fold change /veh C5orf56 (11738088_a_at) / RFU OLFML3 (11715873_a_at) / Fold change /veh OLFML3 (11715873_a_at) / RFU LOC100653217 /// NTM (11731650_a_at) / Fold change /veh LOC100653217 /// NTM (11731650_a_at) / RFU MAPK11 (11762145_a_at) / Fold change /veh MAPK11 (11762145_a_at) / RFU FIZ1 (11724087_x_at) / Fold change /veh FIZ1 (11724087_x_at) / RFU OASL (11726364_x_at) / Fold change /veh OASL (11726364_x_at) / RFU SOX15 (11748057_x_at) / Fold change /veh SOX15 (11748057_x_at) / RFU CD79A (11719716_a_at) / Fold change /veh CD79A (11719716_a_at) / RFU HIST1H1D (11736915_at) / Fold change /veh HIST1H1D (11736915_at) / RFU CASKIN2 (11723855_a_at) / Fold change /veh CASKIN2 (11723855_a_at) / RFU LOC730098 (11760151_x_at) / Fold change /veh LOC730098 (11760151_x_at) / RFU OR4N2 (11742367_at) / Fold change /veh OR4N2 (11742367_at) / RFU PRRT2 (11749266_a_at) / Fold change /veh PRRT2 (11749266_a_at) / RFU SNX32 (11753110_a_at) / Fold change /veh SNX32 (11753110_a_at) / RFU CDHR5 (11726645_a_at) / Fold change /veh CDHR5 (11726645_a_at) / RFU RCAN1 (11760418_a_at) / Fold change /veh RCAN1 (11760418_a_at) / RFU FAM167A (11723789_a_at) / Fold change /veh FAM167A (11723789_a_at) / RFU FAM26E (11764081_at) / Fold change /veh FAM26E (11764081_at) / RFU ISYNA1 (11749810_s_at) / Fold change /veh ISYNA1 (11749810_s_at) / RFU ACY1 (11761880_at) / Fold change /veh ACY1 (11761880_at) / RFU 11764098_at / Fold change /veh 11764098_at / RFU SAMD14 (11745864_x_at) / Fold change /veh SAMD14 (11745864_x_at) / RFU NPB (11741838_a_at) / Fold change /veh NPB (11741838_a_at) / RFU TMPRSS6 (11731388_a_at) / Fold change /veh TMPRSS6 (11731388_a_at) / RFU KRTAP10-2 (11738614_at) / Fold change /veh KRTAP10-2 (11738614_at) / RFU ARHGAP8 /// PRR5-ARHGAP8 (11727945_x_at) / Fold change /veh ARHGAP8 /// PRR5-ARHGAP8 (11727945_x_at) / RFU KRTAP5-7 /// NADSYN1 (11734609_at) / Fold change /veh KRTAP5-7 /// NADSYN1 (11734609_at) / RFU RASL12 (11751679_a_at) / Fold change /veh RASL12 (11751679_a_at) / RFU CDKN2B (11736163_a_at) / Fold change /veh CDKN2B (11736163_a_at) / RFU PRF1 (11729649_at) / Fold change /veh PRF1 (11729649_at) / RFU, ZNF638 /// ZNF638-IT1 / Fold change vs veh, ZNF638 /// ZNF638-IT1 / RFU, PANK3 / Fold change vs veh, PANK3 / RFU, SH3YL1 / Fold change vs veh, SH3YL1 / RFU, ZEB2 / Fold change vs veh, ZEB2 / RFU, NRIP1 / Fold change vs veh, NRIP1 / RFU, PTTG1IP / Fold change vs veh, PTTG1IP / RFU, CAPN2 / Fold change vs veh, CAPN2 / RFU, MED14 / Fold change vs veh, MED14 / RFU, SNORA58 / Fold change vs veh, SNORA58 / RFU, C1orf63 / Fold change vs veh, C1orf63 / RFU, LRRFIP1 / Fold change vs veh, LRRFIP1 / RFU, NDUFAF7 / Fold change vs veh, NDUFAF7 / RFU, SLC12A2 / Fold change vs veh, SLC12A2 / RFU, IBTK / Fold change vs veh, IBTK / RFU, ESF1 / Fold change vs veh, ESF1 / Fold change vs veh, TMEM50B / RFU, TAOK1 / Fold change vs veh, TAOK1 / RFU, ACBD3 / Fold change vs veh, ACBD3 / RFU, TMA16 / Fold change vs veh, TMA16 / RFU, RWDD3 / Fold change vs veh, RWDD3 / RFU, BCAT1 / Fold change vs veh, BCAT1 / RFU, EDEM3 / Fold change vs veh, EDEM3 / RFU, TMEM33 / Fold change vs veh, TMEM33 / RFU, WDR75 / Fold change vs veh, WDR75 / RFU, AHCTF1 / Fold change vs veh, AHCTF1 / RFU, TFRC / Fold change vs veh, TFRC / RFU, ZDHHC17 / Fold change vs veh, ZDHHC17 / RFU, NOM1 / Fold change vs veh, NOM1 / RFU, ARL8B / Fold change vs veh, ARL8B / RFU, ZBTB11 / Fold change vs veh, ZBTB11 / RFU, TAMM41 / Fold change vs veh, TAMM41 / RFU, KIAA1704 /// LOC100996395 / Fold change vs veh, KIAA1704 /// LOC100996395 / RFU, ING1 / Fold change vs veh, ING1 / RFU, TRMT61B / Fold change vs veh, TRMT61B / RFU, FUBP3 / Fold change vs veh, FUBP3 / RFU, TP53 / Fold change vs veh, TP53 / RFU, TNKS2 / Fold change vs veh, TNKS2 / RFU, ZFP14 / Fold change vs veh, ZFP14 / RFU, ACTR2 / Fold change vs veh, ACTR2 / RFU, PPP3R1 / Fold change vs veh, PPP3R1 / RFU, PIK3R1 / Fold change vs veh, PIK3R1 / RFU, HNRNPA1 / Fold change vs veh, HNRNPA1 / RFU, RNF170 / Fold change vs veh, RNF170 / RFU, ZNF28 / Fold change vs veh, ZNF28 / RFU, RNGTT / Fold change vs veh, RNGTT / RFU, OGT / Fold change vs veh, OGT / RFU, BRD1 / Fold change vs veh, BRD1 / RFU, MARS / Fold change vs veh, MARS / RFU, ZNF655 / Fold change vs veh, ZNF655 / RFU, FAHD1 / Fold change vs veh, FAHD1 / RFU, BDP1 / Fold change vs veh, BDP1 / RFU, LRRCC1 / Fold change vs veh, LRRCC1 / RFU, ARID1A / Fold change vs veh, ARID1A / RFU, ZNF146 / Fold change vs veh, ZNF146 / RFU, ZNF330 / Fold change vs veh, ZNF330 / RFU, GPN3 / Fold change vs veh, GPN3 / RFU, C9orf123 / Fold change vs veh, C9orf123 / RFU, N4BP2L2 / Fold change vs veh, N4BP2L2 / RFU, ARFIP1 / Fold change vs veh, ARFIP1 / RFU, FAM179B / Fold change vs veh, FAM179B / RFU, BCL10 / Fold change vs veh, BCL10 / RFU, UHRF1BP1L / Fold change vs veh, UHRF1BP1L / RFU, BET1 / Fold change vs veh, BET1 / RFU, CNOT2 / Fold change vs veh, CNOT2 / RFU, ZNF268 / Fold change vs veh, ZNF268 / Fold change vs veh, ZNF507 / RFU, DGCR2 / Fold change vs veh, DGCR2 / RFU, WDSUB1 / Fold change vs veh, WDSUB1 / Fold change vs veh, HSP90B1 /// MIR3652 / RFU, ADSS / Fold change vs veh, ADSS / RFU, GK / Fold change vs veh, GK / RFU, ZNF148 / Fold change vs veh, ZNF148 / RFU, TAF9 / Fold change vs veh, TAF9 / RFU, SLC1A5 / Fold change vs veh, SLC1A5 / RFU, SLMO2 / Fold change vs veh, SLMO2 / RFU, ABCC4 / Fold change vs veh, ABCC4 / RFU, LOC101060439 /// RAP1B / Fold change vs veh, LOC101060439 /// RAP1B / RFU, RFX7 / Fold change vs veh, RFX7 / RFU, GTPBP10 / Fold change vs veh, GTPBP10 / RFU, CNEP1R1 / Fold change vs veh, CNEP1R1 / RFU, BIVM-ERCC5 /// ERCC5 / Fold change vs veh, BIVM-ERCC5 /// ERCC5 / RFU, ILF3 / Fold change vs veh, ILF3 / RFU 11762660_at / Fold change /veh 11762660_at / RFU VCAN (11757783_s_at) / Fold change /veh VCAN (11757783_s_at) / RFU DDX43 (11728927_at) / Fold change /veh DDX43 (11728927_at) / RFU KRT8 (11758188_x_at) / Fold change /veh KRT8 (11758188_x_at) / RFU NKD1 (11759106_at) / Fold change /veh NKD1 (11759106_at) / RFU SRD5A1 (11742802_a_at) / Fold change /veh SRD5A1 (11742802_a_at) / RFU TPSAB1 /// TPSB2 (11721975_s_at) / Fold change /veh TPSAB1 /// TPSB2 (11721975_s_at) / RFU GSTM3 (11746129_a_at) / Fold change /veh GSTM3 (11746129_a_at) / RFU IL23R (11737362_x_at) / Fold change /veh IL23R (11737362_x_at) / RFU TMEM51 (11727254_a_at) / Fold change /veh TMEM51 (11727254_a_at) / RFU PIWIL2 (11732686_x_at) / Fold change /veh PIWIL2 (11732686_x_at) / RFU ORM1 (11744905_x_at) / Fold change /veh ORM1 (11744905_x_at) / RFU CCDC152 (11743942_at) / Fold change /veh CCDC152 (11743942_at) / RFU ECM1 (11717891_a_at) / Fold change /veh ECM1 (11717891_a_at) / RFU IL23R (11748794_a_at) / Fold change /veh IL23R (11748794_a_at) / RFU TNFAIP8L3 (11732012_x_at) / Fold change /veh TNFAIP8L3 (11732012_x_at) / RFU MBOAT4 (11741988_at) / Fold change /veh MBOAT4 (11741988_at) / RFU 11764193_at / Fold change /veh 11764193_at / RFU TMEM53 (11763286_at) / Fold change /veh TMEM53 (11763286_at) / RFU MAGEB2 (11727129_at) / Fold change /veh MAGEB2 (11727129_at) / RFU TMEM200A (11744735_a_at) / Fold change /veh TMEM200A (11744735_a_at) / RFU CCDC152 (11751479_a_at) / Fold change /veh CCDC152 (11751479_a_at) / RFU FAM211A (11726209_a_at) / Fold change /veh FAM211A (11726209_a_at) / RFU RGS16 (11746705_a_at) / Fold change /veh RGS16 (11746705_a_at) / RFU VCAN (11755009_s_at) / Fold change /veh VCAN (11755009_s_at) / RFU RHOB (11743442_s_at) / Fold change /veh RHOB (11743442_s_at) / RFU RGS16 (11720943_a_at) / Fold change /veh RGS16 (11720943_a_at) / RFU RGS16 (11720944_at) / Fold change /veh RGS16 (11720944_at) / RFU, VPS4B / Fold change vs veh, VPS4B / RFU, CREB1 / Fold change vs veh, CREB1 / RFU, DNAJC13 / Fold change vs veh, DNAJC13 / RFU, GNAQ / Fold change vs veh, GNAQ / RFU, CDK5R1 / Fold change vs veh, CDK5R1 / RFU, ZRANB3 / Fold change vs veh, ZRANB3 / RFU, CUL4A / Fold change vs veh, CUL4A / RFU, CCNY / Fold change vs veh, CCNY / RFU, UFL1 / Fold change vs veh, UFL1 / RFU, COG3 / Fold change vs veh, COG3 / RFU, DIAPH2 / Fold change vs veh, DIAPH2 / RFU, SKA2 / Fold change vs veh, SKA2 / RFU, AFF3 / Fold change vs veh, AFF3 / RFU, LMF1 / Fold change vs veh, LMF1 / RFU, IPO11 / Fold change vs veh, IPO11 / RFU, DFFB / Fold change vs veh, DFFB / RFU, FOXP1 / Fold change vs veh, FOXP1 / RFU, CARD8 / Fold change vs veh, CARD8 / RFU, STRN3 / Fold change vs veh, STRN3 / RFU, ADK / Fold change vs veh, ADK / RFU, RASSF2 / Fold change vs veh, RASSF2 / RFU, WIPF1 / Fold change vs veh, WIPF1 / RFU, LARP1B / Fold change vs veh, LARP1B / RFU, RASA1 / Fold change vs veh, RASA1 / RFU, RB1 / Fold change vs veh, RB1 / RFU, PPFIA1 / Fold change vs veh, PPFIA1 / RFU, MAT2A / Fold change vs veh, MAT2A / RFU, CCT5 / Fold change vs veh, CCT5 / RFU, WDR92 / Fold change vs veh, WDR92 / RFU, CUX1 / Fold change vs veh, CUX1 / RFU, TTC7A / Fold change vs veh, TTC7A / RFU, TMEM135 / Fold change vs veh, TMEM135 / RFU, DEPTOR / Fold change vs veh, DEPTOR / RFU, CPM / Fold change vs veh, CPM / RFU, DNAJB6 / Fold change vs veh, DNAJB6 / RFU, CACNA2D3 / Fold change vs veh, CACNA2D3 / RFU, DTX4 / Fold change vs veh, DTX4 / RFU, TFCP2 / Fold change vs veh, TFCP2 / RFU, GMCL1 /// GMCL1P1 / Fold change vs veh, GMCL1 /// GMCL1P1 / RFU, AEBP2 / Fold change vs veh, AEBP2 / RFU, SNHG1 /// SNORD22 /// SNORD25 /// SNORD26 /// SNORD27 /// SNORD28 /// SNORD29 /// SNORD31 / Fold change vs veh, SNHG1 /// SNORD22 /// SNORD25 /// SNORD26 /// SNORD27 /// SNORD28 /// SNORD29 /// SNORD31 / Fold change (Aza/veh), C12orf56 (ProbeSet 11735607_a_at) / Fold change (ACY-1035/veh), C12orf56 (ProbeSet 11735607_a_at) / Fold change (Aza/veh), FGFR1OP (ProbeSet 11751329_s_at) / Fold change (ACY-1035/veh), FGFR1OP (ProbeSet 11751329_s_at) / Fold change (Aza/veh), VPS36 (ProbeSet 11739960_a_at) / Fold change (ACY-1035/veh), VPS36 (ProbeSet 11739960_a_at) / RFU SYPL1 (11715823_x_at) / Fold change /veh SYPL1 (11715823_x_at) / RFU IGFBP7 (11715501_s_at) / Fold change /veh IGFBP7 (11715501_s_at) / RFU REEP3 (11722064_at) / Fold change /veh REEP3 (11722064_at) / RFU IGLL1 (11728026_x_at) / Fold change /veh IGLL1 (11728026_x_at): dose or concentration left out as unconfirmed
Conditions: ProbeSet 11752001_a_at; LIST D

In the case of `Nc1ncn([C@@H]2O[C@H](CO)[C@@H](O)[C@H]2O)c(=O)n1` [azacitidine], the “RFU, CUL4A” value is reported as 406.78 RFU.
